According to PubChem BioAssay AID1996:
Converted amounts (≈) assume the structure as drawn.

Settings: buffer; pH 7.4; 200.0 µM

SMILES | solubility kinetic [µg/mL]
CC(NC(=S)Nc1ccc(OC(F)F)c(Cl)c1)C(C)(C)C (centres undefined) | 2.3 (≈ 6.83 µM)
NC(=O)c1sc2nc(-c3ccccc3)ccc2c1N | 1 (≈ 3.71 µM)
O=[N+]([O-])c1ccc(O)c(C=Nc2ccc3c(c2)OCO3)c1 | 15.8 (≈ 55.2 µM)
Cc1nn(C(=O)/C(C#N)=C/N(C)C)c(C)c1C | > 34.8
O=C(OCCCOC(=O)c1cc[n+]([O-])cc1)c1cc[n+]([O-])cc1 | > 47.7
O=C(Nc1ccccc1Cl)c1ccc([N+](=O)[O-])o1 | 39.4 (≈ 148 µM)
O=C(O)C(Cc1c[nH]c2ccccc12)N1C(=O)c2ccccc2C1=O (centres undefined) | 41.4 (≈ 124 µM)
Cc1csc(NC(=O)c2ccc3nc[nH]c3c2)n1 | > 38.7
Cc1cccnc1NC(=O)c1ccc2c(c1)OCCO2 | > 40.5
O=S(=O)(NCc1nc(-c2ccccc2)no1)c1ccc(F)cc1 | 6.4 (≈ 19.2 µM)
Cc1nc(/C(N)=N/OC(=O)c2c(-c3ccccc3Cl)noc2C)cs1 | 48.2 (≈ 128 µM)
N#Cc1nccnc1N1CCN(C(=O)Nc2ccccc2)CC1 | > 46.3
Cc1ccc2nc(Nc3ccccc3)cc(C)c2c1 | 3.9 (≈ 15.7 µM)
C=CCN1C(=O)c2ccc(C(=O)Nc3ccccn3)cc2C1=O | 8 (≈ 26 µM)
Cc1ccc(C(=O)COC(=O)CN2C(=O)C3C4C=CC(C4)C3C2=O)cc1C (centres undefined) | > 55.1
FC(F)(F)c1cccnc1Oc1ccc(C2=NCCS2)cc1 | 0.6 (≈ 1.85 µM)
O=C(OC(C(=O)NC1CCCCC1)c1ccccc1F)c1ccco1 (centres undefined) | 41.6 (≈ 120 µM)
Cc1cccc(NC(=O)c2ccc(S(=O)(=O)N3CCCC3)cc2)c1C | 2 (≈ 5.58 µM)
O=C(c1ccc([N+](=O)[O-])cc1)N1CCN(c2cccc3[nH]ccc23)CC1 | 50.7 (≈ 145 µM)
CC(NC(=O)c1ccccc1F)C1CC1 (centres undefined) | > 31.1

SMILES | solubility kinetic [µg/mL]
CC(=O)c1ccc(OCC(=O)Nc2ccc3nc(C)sc3c2)cc1 | 1.4 (≈ 4.11 µM)
COc1ccccc1NC(=O)CSc1nnc(-c2ccccn2)o1 | > 51.4
Cc1cc(NC(=O)c2ccc(Cl)cc2Cl)no1 | 3.5 (≈ 12.9 µM)
Cc1cc(NS(=O)(=O)c2ccc(NC(=O)C3CCCCC3)cc2)no1 | 44.1 (≈ 121 µM)
CC(C)C(=O)Nc1ccc2oc(=O)ccc2c1 | 33.5 (≈ 145 µM)
c1ccc(N2CCN(Cc3cn4ccccc4n3)CC2)cc1 | 40.8 (≈ 140 µM)
O=C(O)c1ccccc1C(=O)NCCCn1ccnc1 | > 41
Cc1ccc(S(=O)(=O)N(CCO)Cc2ccccc2)cc1 | > 45.8
O=C(NCCc1ccccc1)c1ccc(NC(=O)c2cccnc2)cc1 | 4.3 (≈ 12.4 µM)
COc1ccc(CCNC(=O)C2(c3ccccc3)CC2)cc1 | 43.8 (≈ 148 µM)
CN(C)CCCNC(=O)N1c2ccccc2C=Cc2ccccc21.Cl | > 53.7
Cc1ccc(CNC(=O)CCSCc2cccc(F)c2)cc1 | 5.2 (≈ 16.4 µM)
C/C(=N\OCC(=O)Nn1c(C)nc2ccccc2c1=O)c1cccs1 | > 53.5
Cc1cccc(Cl)c1OCCCn1ccnc1.O=C(O)C(=O)O | 45.4
COC(=O)N1CCCc2cc(C)ccc21 | 15.5 (≈ 75.5 µM)
Cc1ccc(C(=O)CN2C(=O)C(C)Oc3ccccc32)cc1 (centres undefined) | 21.6 (≈ 73.1 µM)
Cc1ccc(Cl)cc1NC(=O)NCCN1CCCCC1 | > 44.4
CCOc1ccc2c(c1)[nH]c(=S)n2C | > 31.2
Cc1cc(C=C2C(=O)NC(=O)NC2=O)c(C)n1-c1ccncc1 | > 46.5
O=c1c2cc(Br)ccc2[nH]c(=S)n1Cc1ccccc1 | < 0.4

SMILES | solubility kinetic [µg/mL]
Nc1ccc(C(=O)OCC(=O)NC2CC2)cc1[N+](=O)[O-] | > 41.9
Clc1ccccc1N=C1SCCS1 | 18.2 (≈ 79.2 µM)
CSc1cccc(N=C2C(=O)Nc3ccccc32)c1 | 33 (≈ 123 µM)
COC(=O)c1cc(C(=O)Nc2nc3ccccc3[nH]2)cc([N+](=O)[O-])c1 | 1.1 (≈ 3.23 µM)
Cc1cccc2sc(NC(=O)C3CC3)nc12 | 1.4 (≈ 6.03 µM)
Cc1ccc(S(=O)(=O)NCCC(=O)NC2CCCCCC2)cc1C | > 52.9
CCCc1cc(C(=O)Nc2cccc([N+](=O)[O-])c2)cs1 | 1.7 (≈ 5.86 µM)
CCOc1ccc(S(=O)(=O)/N=C(/c2ccccc2)N(C)C)cc1 | > 49.9
COc1ccc(N2CCOCC2)c(NC(=O)c2ccc3c(c2)OCO3)c1 | 26.2 (≈ 73.5 µM)
Cc1cccc(C(=O)Nc2ccc3c(c2)ncn3C)c1 | > 39.8
C=CCC1(C#N)C(=S)NC(C)=C(C(=O)OCC)C1c1ccccc1 (centres undefined) | > 51.1
COc1ccc(C(=O)NCC(=O)N2CCNC(=O)C2)cc1OC | > 48.2
O=C(NCc1ccc2c(c1)CCO2)Nc1ccccc1 | 8.7 (≈ 32.4 µM)
COc1cccc(C(=O)O/N=C(\C)c2cnccn2)c1 | 30.7 (≈ 113 µM)
NS(=O)(=O)c1ccc(NC(=O)CSc2nc3ccccc3c(=O)n2Cc2ccncc2)cc1 | 8 (≈ 16.6 µM)
CCOc1ccccc1NC(=O)NCc1ccccn1 | > 40.7
COc1cccc(NC(=O)C2CCCN(S(C)(=O)=O)C2)c1 (centres undefined) | > 46.9
COc1cc2c(cc1OC)C(c1ccccc1OC(C)C)CC(=O)N2 (centres undefined) | < 0.7
Cc1nc(C)c(C(=O)O)c(-c2ccsc2)c1C(=O)O | > 41.6
